Test results: patent US20130296370A1, “COMPOSITION COMPRISING A PHOTOACTIVATABLE LARVICIDE” (UNIVERSITA DEGLI STUDI DI PADOVA, priority 2010, published 2013)

Tests used:
[1] = tested on: An. arabiensis; experiment: Laboratory-scale tray larvicide test; assay type: in vivo; conditions: sun
Protocol: (§1) Laboratory strains of Anopheles stephensi, M and S (Kisumu), chromosomal forms of An. gambiae, An. arabiensis and Aedes aegypti, as well as field-collected Anopheles spp. and Aedes spp. larvae were used. Laboratory mosquitoes were maintained at 28-30° C., >90% RH and a photoperiod of 12 h. Light intensity ranged between 0.5 mW/cm^2 (fluorescent lamp) and 185 mW/cm^2 (sunlight).
(§2) C12 or C14 porphyrin solutions at 5-100 μM concentrations were pre-incubated at room temperature in the darkness with 15-60 mg of carrier (either Eudragit or ground mouse food or cat food) for 4-12 hours under gentle shaking. After incubation the solutions were filtered, and the loaded carrier was dried at room temperature or in an oven (45° C.).
(§3) One litre capacity, transparent plastic trays containing wells with each 500 ml water and 6-60 mg of the composition of the present invention were prepared. Batches of 60-100 L2, L3 or L4 larvae were introduced into the trays after sunset (or artificial light off). Larval mortality was evaluated the next day starting from 8.00 am, and the time required to reach at least 90% mortality was recorded. Larvae not moving or not showing an escaping response at probing were defined as dead or dying, and counted together (Tables 2 and 3). Pupae occasionally formed throughout the irradiation time were discarded and excluded from the evaluation. An equal number of batches of larvae prepared in the same way were kept in continuous darkness and mortality was evaluated similarly, to assess toxicity in the dark.
(§4) Light intensity range: 0.5-185 mW/cm^2.

[2] = tested on: An. gambiae (M); experiment: Laboratory-scale tray larvicide test; assay type: in vivo; conditions: sun
Protocol: as §1, §2, §3, §4

[3] = tested on: An. stephensi; experiment: Laboratory-scale tray larvicide test; assay type: in vivo; conditions: carrier mouse food; 6 mg per tray; loading concentration 0.64 μM; fluorescent lamp
Protocol: as §1, §2, §3, §4

[4] = tested on: Anopheles gambiae Kisumu strain (S); experiment: Laboratory-scale tray larvicide test; assay type: in vivo; conditions: sun
Protocol: as §1, §2, §3, §4

[5] = tested on: Anopheles spp + Aedes spp; experiment: Tray larvicide test on field-collected mosquitoes; assay type: in vivo; conditions: carrier Eudragit; 30 mg per tray; loading concentration 50 μM; sunlight
Protocol: as §1, §2, §3
(§5) Each result derives from an independent, representative experiment. Light source: sunlight in all cases, intensity range: 4-185 mW/cm^2

[6] = tested on: Anopheles spp; experiment: Tray larvicide test on field-collected mosquitoes; assay type: in vivo; conditions: sunlight
Protocol: as §1, §2, §3, §5

[7] = tested on: Artemia franciscana; experiment: Effect of free porphyrin on non-target organisms of aqueous habitats; assay type: in vivo; conditions: 1 h irradiation, fluorescent lamp
Protocol: (§6) The effect of free porphyrin, wherein porphyrin means porphyrin C12, dissolved in water on the photosensitivity of potential aqueous non-target organisms was evaluated on Colpoda inflata, Artemia franciscana and Daphnia magna, a protozoan and two crustacean organisms frequently found in aqueous environments. The mortality data were recorded after 1 h irradiation with visible light emitted by a fluorescent lamp.

[8] = tested on: Colpoda inflata; experiment: as above; assay type: in vivo; conditions: 1 h irradiation, fluorescent lamp
Protocol: as §6

[9] = tested on: Daphnia magna; experiment: as above; assay type: in vivo; conditions: 1 h irradiation, fluorescent lamp
Protocol: as §6

[10] = C12 photo-bleaching in water; assay type: physicochemical; conditions: free porphyrin in water; 1 hour irradiation, visible light 150 mW/cm^2
Protocol: Moreover, with the aim to determine the level of degradation of the free porphyrin in the water after exposure to sunlight, the rate of C12 photo-bleaching was followed spectrophotometrically by measuring the porphyrin absorption spectrum in the 350-700 nm range upon exposure to visible light at a fluence rate of 150 mW/cm^2. After 1 hour irradiation the porphyrin concentration decreased up to 50%.

[11] = tested on: Tetrahymena thermophila; conditions: in vivo
Protocol: (§7) The dark- and photo-toxic activity of free C12 (wherein C12 means porphyrin C12) was tested on representative components of mosquito's breeding sites biota, the results are shown in table 6, as minimal photosensitizing dose (μM). […] Sensitivity to phototreatment (visible light, 10 mW/cm^2) was obviously different, as C. inflate trophozoites and even cysts were highly photosensitive, while Artemia franciscana nauplii appeared to be highly resistant.

[12] = tested on: Artemia franciscana; experiment: Dark- and photo-toxic activity of free C12 on breeding site biota; assay type: in vivo; conditions: nauplii; 1 h incubation; visible light 10 mW/cm^2
Protocol: as §7

[13] = tested on: Chlamydomonas reinhardtii; experiment: as above; assay type: in vivo; conditions: vegetative cells; 1 h incubation; visible light 10 mW/cm^2
Protocol: as §7

[14] = tested on: Daphnia magna; experiment: as above; assay type: in vivo; conditions: young individuals; 1 h incubation; visible light 10 mW/cm^2
Protocol: as §7

[15] = tested on: Culex sp.; conditions: cited from earlier work
[16] = carrier Eudragit, 30 mg per tray, loading concentration 50 μM
[17] = carrier cat food, 30 mg per tray, loading concentration 50 μM
[18] = carrier Eudragit, 15 mg per tray, loading concentration 25 μM
[19] = carrier Eudragit, 30 mg per tray, loading concentration 25 μM

## CCCCCCCCCCCC[n+]1ccc(-c2c3nc(c(-c4cc[n+](C)cc4)c4ccc([nH]4)c(-c4cc[n+](C)cc4)c4nc(c(-c5cc[n+](C)cc5)c5ccc2[nH]5)C=C4)C=C3)cc1 [C12, meso-tri(N-methyl-pyridyl), mono(N-dodecyl-pyridyl)porphine]
[1]; carrier Eudragit, 15 mg per tray, loading concentration 5 μM
  Time to reach ≧90% mortality: 3 h
[1]; [16]
  Time to reach ≧90% mortality: 0.5 h
[1]; [17]
  Time to reach ≧90% mortality: 3 h
[2]; [18]
  Time to reach ≧90% mortality: 0.5 h
[2]; [17]
  Time to reach ≧90% mortality: 3 h
[3]
  Time to reach ≧90% mortality: 6 h
[4]; [18]
  Time to reach ≧90% mortality: 0.5 h
[4]; carrier Eudragit, 15 mg per tray, loading concentration 50 μM
  Time to reach ≧90% mortality: 0.5 h
[4]; [19]
  Time to reach ≧90% mortality: 0.5 h
[4]; [16]
  Time to reach ≧90% mortality: 0.5 h
[4]; carrier Eudragit, 60 mg per tray, loading concentration 50 μM
  Time to reach ≧90% mortality: 0.5 h
[4]; carrier cat food, 30 mg per tray, loading concentration 25 μM
  Time to reach ≧90% mortality: 8 h
[4]; [17]
  Time to reach ≧90% mortality: 0.5 h
[4]; carrier cat food, 30 mg per tray, loading concentration 100 μM
  Time to reach ≧90% mortality: 0.5 h
[4]; carrier cat food, 60 mg per tray, loading concentration 100 μM
  Time to reach ≧90% mortality: 0.5 h
[5]
  Time to reach ≧90% mortality: 0.5 h
[6]; carrier Eudragit, 15 mg per tray, loading concentration 15 μM
  Time to reach ≧90% mortality: 3 h
[6]; [19]
  Time to reach ≧90% mortality: 0.5 h
[6]; [17]
  Time to reach ≧90% mortality: 3 h
[7]
  LD-50: >10.0 µM
[7]; porphyrin dose 6.0 μM
  Mortality (%): 20%
[8]; cysts
  LD-50: >1.0 µM
[8]; cysts, porphyrin dose 1.0 μM
  Mortality (%): 20%
[8]; trophozoites
  LD-50: 1.0 µM
[8]; trophozoites, porphyrin dose 0.6 μM
  Mortality (%): 40%
[9]
  LD-50: 0.3 µM
[9]; porphyrin dose 0.3 μM
  Mortality (%): 50%
[10]
  decrease of porphyrin concentration (photo-bleaching): up to 50%
[11]
  minimal photosensitizing dose: 3.0 µM
[12]
  minimal photosensitizing dose: >10.0 µM
[13]
  minimal photosensitizing dose: 0.2 µM
[14]
  minimal photosensitizing dose: 0.3 µM

## CC1=C(CCC(=O)O)c2cc3[nH]c(cc4nc(cc5[nH]c(cc1n2)c(C)c5C(C)O)C(C)=C4C(C)O)c(C)c3CCC(=O)O (stereo not shown) [hematoporphyrin]
[15]; semi-field, 10^−5 M, after 3 days under natural sunlight
  mortality: 100%

## chlorophyllin
[15]; laboratory, added to larval breeding water, after 3 h exposure to light intensity 146.66 W/m^2
  LD50: 6.88 g/L
